This assay has as its system recombinant guanylate cyclase reporter cell line. The experiment in a line: Action on recombinant guanylate cyclase reporter cell line (MEC). Format: cell-based. To be noted: in some cases mean values obtained from individual determinations. In short, it runs like this:
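Cell-based reporter assay with recombinant guanylate cyclase expressed in a reporter cell line, per a published method. Activity reported as minimal effective concentration (MEC), in some cases as the mean of individual determinations.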

Structures can show the parent of a compound that is named as a salt.

A word on the minimal effective concentration: it is the lowest level tested that produced the effect sought. Regarding `CC[C@H](CO)NC(=O)c1c(C)nc2c(OCC3CCCCC3)cccn12` [Example 72, 8-(cyclohexylmethoxy)-N-[(2R)-1-hydroxybutan-2-yl]-2-methylimidazo[1,2-a]pyridine-3-carboxamide], the minimal effective concentration turned out to be 0.1 µM.
On to `Cc1nc2c(OCC3CCCCC3)cccn2c1C(=O)NCCCCO` [Example 74, 8-(cyclohexylmethoxy)-N-(4-hydroxybutyl)-2-methylimidazo[1,2-a]pyridine-3-carboxamide], for which the minimal effective concentration is 0.2 µM.
As for `Cc1nc2c(OCC3CCCCC3)cccn2c1C(=O)N[C@@H](C)CO` [Example 75, 8-(cyclohexylmethoxy)-N-[(2S)-1-hydroxypropan-2-yl]-2-methylimidazo[1,2-a]pyridine-3-carboxamide], the minimal effective concentration was 0.22 µM.
As to `Cc1nc2c(OCC3CCCCC3)cccn2c1C(=O)NCCO` [Example 76, 8-(cyclohexylmethoxy)-N-(2-hydroxyethyl)-2-methylimidazo[1,2-a]pyridine-3-carboxamide formate], the minimal effective concentration worked out at 0.3 µM.
Next, `Cc1nc2c(OCC3CCCCC3)cccn2c1C(=O)NC(CO)(CO)CO` [Example 77, 8-(cyclohexylmethoxy)-N-[1,3-dihydroxy-2-(hydroxymethyl)propan-2yl]-2-methylimidazo[1,2-a]pyridine-3-carboxamide formate]: 0.3 µM; `COCC(O)CNC(=O)c1c(C)nc2c(OCC3CCCCC3)cccn12` (stereo not shown) [Example 79, 8-(cyclohexylmethoxy)-N-(2-hydroxy-3-methoxypropyl)-2-methylimidazo[1,2-a]pyridine-3-carboxamide]: 0.3 µM; `Cc1nc2c(OCC3CCCCC3)cccn2c1C(=O)NC[C@@H](O)CO` [Example 80, 8-(cyclohexylmethoxy)-N-[(2R)-2,3-dihydroxypropyl]-2-methylimidazo[1,2-a]pyridine-3-carboxamide]: 0.3 µM.
As for `Cc1nc2c(OCC3CCCCC3)cccn2c1C(=O)NCCCO` [Example 82, 8-(cyclohexylmethoxy)-N-(3-hydroxypropyl)-2-methylimidazo[1,2-a]pyridine-3-carboxamide], the minimal effective concentration was determined as 0.3 µM.
Regarding `Cc1nc2c(OCC3CCCCC3)cccn2c1C(=O)NC1CCCC1O` (stereo not shown) [Example 83, 8-(cyclohexylmethoxy)-N-(2-hydroxycyclopentyl)-2-methylimidazo[1,2-a]pyridine-3-carboxamide], the minimal effective concentration came out at 0.3 µM.
Next, `Cc1nc2c(OCC3CCCCC3)cccn2c1C(=O)NC(C)CO` (stereo not shown) [Example 84, 8-(cyclohexylmethoxy)-N-(1-hydroxypropan-2-yl)-2-methylimidazo[1,2-a]pyridine-3-carboxamide]: 0.3 µM.
`Cc1nc2c(OCC3CCCCC3)cccn2c1C(=O)NC(CO)CO` [Example 85, 8-(cyclohexylmethoxy)-N-(1,3-dihydroxypropan-2-yl)-2-methylimidazo[1,2-a]pyridine-3-carboxamide]: the minimal effective concentration is 0.38 µM.
On to `Cc1nc2c(OCC3CCCCC3)cccn2c1C(=O)NCCOCCO` [Example 86, 8-(cyclohexylmethoxy)-N-[2-(2-hydroxyethoxy)ethyl]-2-methylimidazo[1,2-a]-pyridine-3-carboxamide], for which the minimal effective concentration worked out at 0.65 µM.
With `Cc1nc2c(OCC3CCCCC3)cccn2c1C(=O)NC(C)(C)C(C)O` (stereo not shown) [Example 87, 8-(cyclohexylmethoxy)-N-(3-hydroxy-2-methylbutan-2-yl)-2-methylimidazo[1,2-a]pyridine-3-carboxamide] the figure was 1 µM; with `CC[C@@H](CO)NC(=O)c1c(C)nc2c(OCC3CCCCC3)cccn12` [Example 88, 8-(cyclohexylmethoxy)-N-[(2S)-1-hydroxybutan-2-yl]-2-methylimidazo[1,2-a]pyridine-3-carboxamide], 1 µM.
In the case of `CCC[C@@H](CO)NC(=O)c1c(C)nc2c(OCC3CCCCC3)cccn12` [Example 89, 8-(cyclohexylmethoxy)-N-[(2S)-1-hydroxypentan-2-yl]-2-methylimidazo[1,2-a]pyridine-3-carboxamide], the minimal effective concentration was 1 µM.
With `CSCC[C@@H](CO)NC(=O)c1c(C)nc2c(OCC3CCCCC3)cccn12` [Example 90, 8-(cyclohexylmethoxy)-N-[(2S)-1-hydroxy-4-(methylsulphanyl)butan-2-yl]-2-methylimidazo[1,2-a]pyridine-3-carboxamide], the minimal effective concentration was found to be 1 µM.
Regarding `CC[C@H](C)[C@@H](CO)NC(=O)c1c(C)nc2c(OCC3CCCCC3)cccn12` [Example 91, 8-(cyclohexylmethoxy)-N-[(2S,3S)-1-hydroxy-3-methylpentan-2-yl]-2-methylimidazo[1,2-a]pyridine-3-carboxamide], the minimal effective concentration came to 1 µM.
As to `Cc1nc2c(OCC3CCCCC3)cccn2c1C(=O)NC1(CO)CCCC1` [Example 92, 8-(cyclohexylmethoxy)-N-[1-(hydroxymethyl)cyclopentyl]-2-methylimidazo[1,2-a]pyridine-3-carboxamide], the minimal effective concentration is 1 µM.
Consider `Cc1nc2c(OCC3CCCCC3)cccn2c1C(=O)N[C@H](CO)C(C)C` [Example 93, 8-(cyclohexylmethoxy)-N-[(2S)-1-hydroxy-3-methylbutan-2-yl]-2-methylimidazo[1,2-a]pyridine-3-carboxamide], for which the minimal effective concentration came to 1 µM.
Next, `Cc1nc2c(OCC3CCCCC3)cccn2c1C(=O)NC(CO)COC(C)(C)C` (stereo not shown) [Example 94, N-(1-tert-butoxy-3-hydroxypropan-2-yl)-8-(cyclohexylmethoxy)-2-methylimidazo[1,2-a]-pyridine-3-carboxamide]: 3 µM; `Cc1nc2c(OCC3CCCCC3)cccn2c1C(=O)N[C@H](CO)CC(C)C` [Example 95, 8-(cyclohexylmethoxy)-N-[(2S)-1-hydroxy-4-methylpentan-2-yl]-2-methylimidazo[1,2-a]pyridine-3-carboxamide]: 3 µM; `CCC(C)[C@H](CO)NC(=O)c1c(C)nc2c(OCC3CCCCC3)cccn12` (stereo partly drawn) [Example 96, 8-(cyclohexylmethoxy)-N-[(2R)-1-hydroxy-3-methylpentan-2-yl]-2-methylimidazo[1,2-a]pyridine-3-carboxamide]: 3 µM.
Next, `Cc1nc2c(OCC3CCC3)cccn2c1C(=O)NCCC1(O)CCCC1` [Example 97, 8-(cyclobutylmethoxy)-N-[2-(1-hydroxycyclopentyl)ethyl]-2-methylimidazo[1,2-a]pyridine-3-carboxamide]: 1 µM; `Cc1nc2c(OCC3CCC3)cccn2c1C(=O)NCCOCCO` [Example 98, 8-(cyclobutylmethoxy)-N-[2-(2-hydroxyethoxy)ethyl]-2-methylimidazo[1,2-a]pyridine-3-carboxamide]: 3 µM; `Cc1nc2c(OCC3CCC3)cccn2c1C(=O)NCCC1(O)CCCCC1` [Example 99, 8-(cyclobutylmethoxy)-N-[2-(1-hydroxycyclohexyl)ethyl]-2-methylimidazo[1,2-a]pyridine-3-carboxamide]: 3 µM.
For `[2H]C([2H])(Oc1cccn2c(C(=O)N[C@@H](CO)CCCC)c(C)nc12)c1c(F)cccc1F` [Example 115, 8-{[(2,6-difluorophenyl)(^2H2)methyl]oxy}-N-[(2R)-1-hydroxyhexan-2-yl]-2-methylimidazo[1,2-a]pyridine-3-carboxamide], the minimal effective concentration amounted to 0.01 µM.
Take `Cc1nc2c(OCc3c(F)cccc3F)cccn2c1C(=O)NCCC1(O)CCCCC1` [Example 116, 8-[(2,6-difluorobenzyl)oxy]-N-[2-(1-hydroxycyclohexyl)ethyl]-2-methylimidazo[1,2-a]pyridine-3-carboxamide]: the minimal effective concentration came out at 0.3 µM.
For `Cc1nc2c(OCc3c(F)cccc3F)cccn2c1C(=O)NCCC1(O)CCCC1` [Example 117, 8-[(2,6-difluorobenzyl)oxy]-N-[2-(1-hydroxycyclopentyl)ethyl]-2-methylimidazo[1,2-a]pyridine-3-carboxamide], the minimal effective concentration came to 0.03 µM.
For the compound `Cc1nc2c(OCc3c(F)cccc3F)cccn2c1C(=O)N[C@H](C)CO` [Example 118, 8-[(2,6-difluorobenzyl)oxy]-N-[(2R)-1-hydroxypropan-2-yl]-2-methylimidazo[1,2-a]-pyridine-3-carboxamide], the minimal effective concentration amounted to 0.3 µM.
Take `Cc1nc2c(OCc3c(F)cccc3F)cccn2c1C(=O)NC1(CO)CCC1` [Example 125, 8-[(2,6-Difluorobenzyl)oxy]-N-[1-(hydroxymethyl)cyclobutyl]-2-methylimidazo[1,2-a]pyridine-3-carboxamide]: the minimal effective concentration worked out at 0.3 µM.
With `C#Cc1cc(OCc2c(F)cccc2F)c2nc(C)c(C(=O)N[C@@H](CO)CCCC)n2c1` [Example 126, 8-[(2,6-Difluorobenzyl)oxy]-6-ethynyl-N-[(2R)-1-hydroxyhexan-2-yl]-2-methylimidazo[1,2-a]-pyridine-3-carboxamide] the figure was 0.1 µM.
As to `Cc1nc2c(OCc3c(F)cccc3F)cc(Cl)cn2c1C(=O)N[C@@H](CO)CCCO` [Example 127, 6-Chloro-8-[(2,6-difluorobenzyl)oxy]-N-[(2R)-1,5-dihydroxypentan-2-yl]-2-methylimidazo[1,2-a]-pyridine-3-carboxamide], the minimal effective concentration worked out at 0.3 µM.
As to `Cc1nc2c(OCc3c(F)cccc3F)cc(Cl)cn2c1C(=O)N[C@@H](CO)CCO` [Example 128, 6-chloro-8-[(2,6-difluorobenzyl)oxy]-N-[(2R)-1,4-dihydroxybutan-2-yl]-2-methylimidazo[1,2-a]pyridine-3-carboxamide], the minimal effective concentration came out at 0.3 µM.
With `Cc1nc2c(OCc3c(F)cccc3F)cccn2c1C(=O)N[C@@H](CO)CCO` [Example 129, 8-[(2,6-difluorobenzyl)oxy]-N-[(2R)-1,4-dihydroxybutan-2-yl)-2-methylimidazo[1,2-a]pyridine-3-carboxamide], the minimal effective concentration came to 3 µM.

These data come from patent publication US8778964B2, “Hydroxy-substituted imidazo[1,2-a]-pyridinecarboxamides and their use” (Bayer Pharma Aktiengesellschaft, priority 2012, dated 2014).
